What is called IC50 is the concentration that gives 50% inhibition.

Assay [1] concerns HCT116. Put plainly: MTS antiproliferative assay, HCT116 (with or without added metal ions). The note with it: 96 h. Type of assay: cell-based, human. In short, it runs like this:
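Cells seeded at 3,500/well, left 24 h at 37°C, then exposed to compounds for 96 h, optionally with 20 µM CuSO4, FeSO4 or FeCl3 added. Viability by MTS absorbance at 490 nm after 1 h; IC50 taken as concentration reducing proliferation to 50% of untreated control.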

The test system of assay [2] is HCT116 cells. Put plainly: Time dependent measurement of ROS level. Type of assay: cell-based, human. As to conditions: 1 µM; 3, 6, 9, 12, 24 h. As for the experimental part:
To determine the intracellular levels of ROS, HCT116 cells were seeded onto black 96-well plates (Corning) at a density of 9,000 cells/well and incubated at 37° C. After an overnight incubation, the solutions of the tested compounds: 1a-c, 2 a-b, 3 a-c, Dp44mT (1 μM) and DOX (5 μM) were added and incubated for 3, 6, 9, 12, and 24 h in a kinetic experiment. The generation of ROS was measured using a CellROX® Green Reagent (Molecular Probes™). Additionally, the quantity of cells in each well was determined using Hoechst 33342 (Molecular Probes™). The solutions of the tested compounds were removed and 100 µL of CellROX Green Reagent and Hoechst 33342 at a final concentration of 5 μM were added to each well. Then, the cells were incubated for 30 min at 37° C. The fluorescence was measured using a multi-plate reader (Synergy 4, Bio Tek) at 485 nm excitation and a 520 nm emission for CellROX Green Reagent and a 345 nm excitation laser and a 485 nm emission filter for Hoechst 33342. The experiments were performed three to four times. ROS levels were expressed as the percentage of the control cells level.

Assay [3] has as its system CAT. Put plainly: mRNA expression (Real-Time PCR) of CAT. Type of assay: cell-based, human. As to conditions: HCT116, TSC 1 µM, after the first 12 h. As to the method: The HCT116 cells were seeded in 3 cm Petri dishes (Nunc) at a density of 0.5·10^6 cells/well and incubated overnight. Next, the medium was removed and solutions of TSC (1 μM) and DOX (5 μM) were added. After 12 or 24 h, total RNA was isolated from the cells using TRIzol Reagent (Ambion) according to the manufacturer’s instructions. cDNA synthesis was performed with 5 μg of total RNA using a GoScript™ Reverse Transcriptase kit (Promega) and Oligo(dT)23 Primers (Sigma). The Real-Time PCR was performed with a CTX96 Touch™ Real-Time PCR Detection System (Biorad) in a 20 μL reaction volume. The reaction consisted of PowerUp™ SYBR® Green Master Mix (Applied Biosystems), a primer pair mix (0.5 μM each) and 1 μL of cDNA. All primer pair sequences were purchased from Sigma-Aldrich and are listed in Supplementary Table 2. The experiment was performed under the following conditions: initial denaturation at 95° C for 120 sec; followed by 40 denaturation cycles at 95° C, 15 sec; annealing (primer-specific temperature for 30 sec) and extension at 72° C for 60 sec. Data was analyzed based on a comparison of the expression of the target genes to a reference gene – β-actin, using the 2^–ΔΔCT method. The experiments were performed at least three times.
Background: Quantitative PCR measures a nucleic acid by following its amplification.

The subject of assay [4] is HCT116 cells. Put plainly: Cell cycle assay (Muse Cell-Cycle Kit). The note with it: HCT116, TSC 1 µM, 48 h. Type of assay: cell-based, human. As to the method: The HCT116 cells were seeded in 3 cm Petri dishes (Nunc) at a density of 0.25·10^6 cells/well and incubated at 37° C for 24 h. […] After a 48 h treatment, assays were performed using a Muse Cell-Cycle Kit (Millipore) according to the manufacturer’s instructions. Briefly, cells were collected, washed with cold PBS and centrifuged at 300 g. Then, the cells were fixed in ice cold 70% ethanol and stored at –20° C overnight. Afterwards, the cells were centrifuged and resuspended in 200 μL of Muse™ Cell Cycle Reagent and incubated for 30 min at room temperature in the dark. After staining, the cells were processed for cell cycle analysis using a Muse Cell Analyzer (Millipore). The experiments were performed at least three times.

Assay [5] deals with HCT116. Further details: method as in PMID 25329549. The note with it: 96 h incubation, MTS; cited from earlier work.

Read-outs that look alike come from different tables or passages of the source.

With `S=C(NN=C(c1ccccn1)c1ccccn1)N1CCN(c2ccccc2)CC1` [Compound 3a], the IC50 in assay [1] (20 µM CuSO4 added, read-out: Activity - IC50 HCT116+ Cu^2+) was 0.68 ± 0.15 nM; in assay [1] (20 µM FeCl3 added, read-out: Activity - IC50 HCT116+ Fe^3+) it was 2.07 ± 0.78 nM; in assay [5], 0.81 ± 0.13 nM. The “level of ROS, normalized to untreated cells” value in assay [2] is “strongest effect”. Also, the “mRNA expression of CAT” value in assay [3] is listed as “higher”. Further, in assay [4], the “cells in S phase” value was 33–35%. In assay [4] (untreated 7%), the “cells in G2/M phase” value is listed as 17%.

(Values after paper PMC5915149, “The role of oxidative stress in activity of anticancer thiosemicarbazones” (Oncotarget, 2018).)
